# Data taken from publication PMC8362182, “Acetylenic Replacement of Albicidin's Methacrylamide Residue Circumvents Detrimental E/Z Photoisomerization and Preserves Antibacterial Activity” (Chemistry (Weinheim an Der Bergstrasse, Germany), 2021).
# Read-outs that look alike come from different tables or passages of the source.
# Columns and labels:
# E. coli DNA gyrase = biological target: T1, E. coli DNA gyrase (Escherichia coli, UniProt P0AES4+P0AES6); test: DNA gyrase supercoiling assay; format: biochemical; conditions: tested at 45 nM
# T1 construct: gene gyrA; holoenzyme A2B2 (known biology)
# T1 sequence (P0AES4 2-875, one chain of several): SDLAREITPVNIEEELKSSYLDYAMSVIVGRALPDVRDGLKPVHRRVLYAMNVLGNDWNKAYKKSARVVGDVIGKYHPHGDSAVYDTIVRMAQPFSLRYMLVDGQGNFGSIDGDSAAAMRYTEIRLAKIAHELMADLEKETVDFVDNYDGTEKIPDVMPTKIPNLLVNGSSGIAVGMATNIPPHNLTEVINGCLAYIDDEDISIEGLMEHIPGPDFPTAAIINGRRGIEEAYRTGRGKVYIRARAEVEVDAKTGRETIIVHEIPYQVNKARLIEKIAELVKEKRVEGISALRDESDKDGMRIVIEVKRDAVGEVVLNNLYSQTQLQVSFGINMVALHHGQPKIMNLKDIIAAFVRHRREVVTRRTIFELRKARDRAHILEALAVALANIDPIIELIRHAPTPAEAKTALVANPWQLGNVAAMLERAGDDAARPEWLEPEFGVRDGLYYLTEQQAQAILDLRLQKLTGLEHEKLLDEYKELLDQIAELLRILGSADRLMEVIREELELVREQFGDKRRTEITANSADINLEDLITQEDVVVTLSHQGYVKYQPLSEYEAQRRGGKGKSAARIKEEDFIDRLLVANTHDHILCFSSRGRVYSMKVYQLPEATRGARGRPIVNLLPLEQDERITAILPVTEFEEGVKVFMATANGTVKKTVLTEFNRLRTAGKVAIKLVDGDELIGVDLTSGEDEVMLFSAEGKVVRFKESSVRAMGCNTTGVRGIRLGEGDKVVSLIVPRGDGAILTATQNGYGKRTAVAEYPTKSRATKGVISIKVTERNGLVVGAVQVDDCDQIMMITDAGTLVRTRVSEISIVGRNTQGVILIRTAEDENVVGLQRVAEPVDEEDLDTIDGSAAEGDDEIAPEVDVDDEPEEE
# E. coli BW25113 [1] = tested on: T2, E. coli BW25113; test: microbe, parasite or virus in culture; set-up: broth microdilution MIC in Mueller-Hinton Broth II, CLSI M07-A9; conditions: Escherichia coli
# T2 construct: BW25113
# Procedure: (§1) 2 Procedures for Biological Assays. Microdilution Assay. Minimal inhibitory concentration (MIC) values were determined according to the ninth edition of the Approved Standard M07-A9. The test was carried out for six different bacterial strains (E.coli DSM1116 [Gram-negative], E. coli BW25113 [Gram-negative], B. subtilis DSM10 [Gram-postive], M. luteus DSM1790 [Gram-postive], M. phlei DSM750 [Gram-postive], S. typhimurium TA100 [Gram-negative]. 20 µL of cryo stock of each strain were inoculated in 20 mL LB medium (Lysogeny broth: 10 g/L peptone, 5 g/L yeast extract, 5 g/L NaCl) followed by incubation overnight at 37 °C, 200 rpm. The test inoculum was adjusted by the 0.5 McFarland Standard (OD625 from 0.08 to 0.1). Within 15 min of preparation, the adjusted inoculum suspension was diluted in MHBII (BBLTM Mueller-Hinton Broth II, Becton, Dickinson and Company, New Jersey, USA) so that each well contained approximately 5 × 10^5 CFU/mL in a final volume of 100 µL. 95 µL of the inoculum were applied per well and 5 µL of the (diluted) antibiotic substance were added. Previously, the dry antibiotic compounds (1 to 15 and antibiotic control Ciprofloxacin (CIP)) were dissolved in DMSO (100%) with a concentration of 2560 µg/mL, and the so obtained stock solutions were further diluted in DMSO (100%). 5 µL of each antibiotic dilution were applied to the microdilution tray to reach final concentrations of 8 µg/mL to 0.016 µg/mL. One row of each well plate served as a growth control without antibiotic substances and another row of the microdilution tray served as sterility control (only MHB II-media). The antimicrobial effect of the solvent (DMSO) was tested by adding 5 µL DMSO to several wells. […] After UV exposure, we observed a second resonance set mainly for signals arising from residues MCA and pABA‐1. The new signals for the methyl, vinyl and aromatic protons of MCA were clearly shifted up‐field. To provide evidence that the second resonance set arose from the Z isomer, we performed 2D nuclear Overhauser enhancement (NOE) measurements, which unambiguously confirmed the expected atomic distances in the two isomeric states (Figure S1 in the Supporting Information). While only a small portion of the initial E state (t=0 h) was converted after t=2.5 h, an almost complete conversion to the Z isomer was detected after t=16 h. […] After 32 h, however, the equilibrium had also been reached and approximately 65 % of the fluoro analogue adopted the Z‐isomeric form (Figure S2). It is important to note that significant accumulation of the (Z)‐isomer also occurred when albicidin samples were exposed to sunlight (ca. 50 and 80 % Z after 32 and 160 h daylight, respectively) underlining the vulnerability of 1 during routine handling. These findings became even more relevant when we determined minimal inhibitory concentrations (MICs) against a panel of bacteria (Table S1). […] The fact, that the albicidin producer X. albilineans inhabits the xylem of sugar cane, which is exposed to sunlight, could severely impact the stability of albicid
# M. luteus DSM1790 [2] = tested on: T3, M. luteus DSM1790; test: microbe, parasite or virus in culture; set-up: broth microdilution MIC in Mueller-Hinton Broth II, CLSI M07-A9; conditions: Micrococcus luteus
# T3 construct: DSM1790
# Procedure: as §1
# B. subtilis DSM10 [3] = tested on: T4, B. subtilis DSM10; test: microbe, parasite or virus in culture; set-up: broth microdilution MIC in Mueller-Hinton Broth II, CLSI M07-A9; conditions: Bacillus subtilis
# T4 construct: DSM10
# Procedure: as §1
# S. typhimurium TA100 [4] = tested on: T5, S. typhimurium TA100; test: microbe, parasite or virus in culture; set-up: broth microdilution MIC in Mueller-Hinton Broth II, CLSI M07-A9; conditions: Salmonella enterica
# T5 construct: TA100
# Procedure: as §1
# E. coli DSM1116 [5] = tested on: T6, E. coli DSM1116; test: microbe, parasite or virus in culture; set-up: broth microdilution MIC in Mueller-Hinton Broth II, CLSI M07-A9
# T6 construct: DSM1116
# Procedure: as §1
# E. coli BW25113 [6] = tested on: T2, E. coli BW25113; test: microbe, parasite or virus in culture; set-up: broth microdilution MIC, CLSI M07-A9, MHB II; conditions: Escherichia coli
# Procedure: (§2) 2 Procedures for Biological Assays. Microdilution Assay. Minimal inhibitory concentration (MIC) values were determined according to the ninth edition of the Approved Standard M07-A9. The test was carried out for six different bacterial strains (E.coli DSM1116 [Gram-negative], E. coli BW25113 [Gram-negative], B. subtilis DSM10 [Gram-postive], M. luteus DSM1790 [Gram-postive], M. phlei DSM750 [Gram-postive], S. typhimurium TA100 [Gram-negative]. 20 µL of cryo stock of each strain were inoculated in 20 mL LB medium (Lysogeny broth: 10 g/L peptone, 5 g/L yeast extract, 5 g/L NaCl) followed by incubation overnight at 37 °C, 200 rpm. The test inoculum was adjusted by the 0.5 McFarland Standard (OD625 from 0.08 to 0.1). Within 15 min of preparation, the adjusted inoculum suspension was diluted in MHBII (BBLTM Mueller-Hinton Broth II, Becton, Dickinson and Company, New Jersey, USA) so that each well contained approximately 5 × 10^5 CFU/mL in a final volume of 100 µL. 95 µL of the inoculum were applied per well and 5 µL of the (diluted) antibiotic substance were added. Previously, the dry antibiotic compounds (1 to 15 and antibiotic control Ciprofloxacin (CIP)) were dissolved in DMSO (100%) with a concentration of 2560 µg/mL, and the so obtained stock solutions were further diluted in DMSO (100%). 5 µL of each antibiotic dilution were applied to the microdilution tray to reach final concentrations of 8 µg/mL to 0.016 µg/mL. One row of each well plate served as a growth control without antibiotic substances and another row of the microdilution tray served as sterility control (only MHB II-media). The antimicrobial effect of the solvent (DMSO) was tested by adding 5 µL DMSO to several wells. Purity check and cell titer control were performed according to International Standard M07-
# M. luteus DSM1790 [7] = tested on: T3, M. luteus DSM1790; test: microbe, parasite or virus in culture; set-up: broth microdilution MIC, CLSI M07-A9, MHB II; conditions: Micrococcus luteus
# Procedure: as §2
# B. subtilis DSM10 [8] = tested on: T4, B. subtilis DSM10; test: microbe, parasite or virus in culture; set-up: broth microdilution MIC, CLSI M07-A9, MHB II; conditions: Bacillus subtilis
# Procedure: as §2
# S. typhimurium TA100 [9] = tested on: T5, S. typhimurium TA100; test: microbe, parasite or virus in culture; set-up: broth microdilution MIC, CLSI M07-A9, MHB II; conditions: Salmonella enterica
# Procedure: as §2
# E. coli DSM1116 [10] = tested on: T6, E. coli DSM1116; test: microbe, parasite or virus in culture; set-up: broth microdilution MIC, CLSI M07-A9, MHB II; conditions: Escherichia coli
# Procedure: as §2
# [11] = Escherichia coli, DSM1116, read-out: MIC
Structure (SMILES),inhibition at 45 nM (E. coli DNA gyrase),MIC (E. coli BW25113 [1]) [µg/mL],MIC (M. luteus DSM1790 [2]) [µg/mL],MIC (B. subtilis DSM10 [3]) [µg/mL],MIC (S. typhimurium TA100 [4]) [µg/mL],MIC (E. coli DSM1116 [5]; [11]) [µg/mL],"MIC (E. coli DSM1116 [5]; inhibitor, CIP) [µg/mL]",MIC (E. coli BW25113 [6]) [µg/mL],MIC (M. luteus DSM1790 [7]) [µg/mL],MIC (B. subtilis DSM10 [8]) [µg/mL],MIC (S. typhimurium TA100 [9]) [µg/mL],"MIC (E. coli BW25113 [1]; dark sample, 100% E isomer) [µg/mL]","MIC (M. luteus DSM1790 [2]; dark sample, 100% E isomer) [µg/mL]","MIC (B. subtilis DSM10 [3]; dark sample, 100% E isomer) [µg/mL]","MIC (S. typhimurium TA100 [4]; dark sample, 100% E isomer) [µg/mL]","MIC (E. coli DSM1116 [5]; Escherichia coli, dark sample, 100% E isomer) [µg/mL]",MIC (E. coli DSM1116 [10]) [µg/mL]
COc1c(NC(=O)c2ccc(NC(=O)c3ccc(NC(=O)[C@H](CC#N)NC(=O)c4ccc(NC(=O)/C(C)=C\c5ccc(O)cc5)cc4)cc3)c(OC)c2O)ccc(C(=O)O)c1O [Z isomer of albicidin],the Z isomer was incapable of inhibiting DNA gyrase,–,–,–,–,–,–,–,–,–,–,–,–,–,–,–,–
"O=C(O)c1cn(C2CC2)c2cc(N3CCNCC3)c(F)cc2c1=O [CIP, ciprofloxacin]",–,≤ 0.016,1,0.25,≤ 0.016,0.016,0.031,≤ 0.016,1,0.25,≤ 0.016,–,–,–,–,–,–
"COc1c(NC(=O)c2ccc(NC(=O)c3ccc(NC(=O)[C@H](CC#N)NC(=O)c4ccc(NC(=O)/C(C)=C/c5ccc(O)cc5)cc4)cc3)c(OC)c2O)ccc(C(=O)O)c1O [compound 1, albicidin]",–,0.063,1,0.25,≤ 0.016,0.063,–,0.063,1,0.25,≤ 0.016,0.063,1,0.25,0.016,0.063,0.063
